Measurements from ChEMBL document CHEMBL4152312, “Identification of fused pyrimidines as interleukin 17 secretion inhibitors” (Eur J Med Chem, 2018).

Assays:
PBMC [1] = assay: Inhibition of IL-17 secretion in anti-human CD3 antibody/anti-human CD28 antibody/IL23-stimulated human PBMC after 48 hrs by ELISA; type: functional, cell-based
PBMC [2] = assay: Cytotoxicity against human PBMC assessed as induction of cell death by cell Titer-Glo assay; type: cell-based
[3] = biological target: RAC-alpha serine/threonine-protein kinase (Homo sapiens) (UniProt P31749); assay: Inhibition of recombinant human full length His-tagged AKT1 expressed in baculovirus expression system at 500 nM by Z-LYTE assay relative to control
Chain of RAC-alpha serine/threonine-protein kinase (Homo sapiens) (P31749 whole entry): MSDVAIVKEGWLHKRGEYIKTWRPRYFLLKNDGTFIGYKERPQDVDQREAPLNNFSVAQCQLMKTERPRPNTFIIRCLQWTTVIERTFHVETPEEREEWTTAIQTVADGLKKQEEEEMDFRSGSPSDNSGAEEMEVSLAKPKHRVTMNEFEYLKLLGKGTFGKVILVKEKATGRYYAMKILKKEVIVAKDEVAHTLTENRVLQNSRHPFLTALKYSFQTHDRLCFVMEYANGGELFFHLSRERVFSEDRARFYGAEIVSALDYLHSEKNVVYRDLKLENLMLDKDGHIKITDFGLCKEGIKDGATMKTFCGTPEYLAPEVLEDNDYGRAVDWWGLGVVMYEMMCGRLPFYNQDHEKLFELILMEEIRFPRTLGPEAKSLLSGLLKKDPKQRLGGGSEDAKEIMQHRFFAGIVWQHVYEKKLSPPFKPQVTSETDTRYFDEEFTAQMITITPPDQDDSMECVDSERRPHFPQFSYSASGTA

[4] = biological target: Tyrosine-protein kinase BTK (Homo sapiens) (UniProt Q06187); assay: Inhibition of recombinant human full length His-tagged BTK expressed in baculovirus expression system at 500 nM by Z-LYTE assay relative to control
[5] = biological target: Calcium/calmodulin-dependent protein kinase type 1G (Homo sapiens) (UniProt Q96NX5); assay: Inhibition of recombinant human full length GST-tagged CAMK1G expressed in insect cells at 500 nM by Z-LYTE assay relative to control
[6] = biological target: Receptor tyrosine-protein kinase erbB-4 (Homo sapiens) (UniProt Q15303); assay: Inhibition of recombinant humans GST-tagged ERBB4 cytoplasmic domain expressed in baculovirus expression system at 500 nM by Z-LYTE assay relative to control
Chain of Receptor tyrosine-protein kinase erbB-4 (Homo sapiens) (Q15303 whole entry, the tested form may be a part): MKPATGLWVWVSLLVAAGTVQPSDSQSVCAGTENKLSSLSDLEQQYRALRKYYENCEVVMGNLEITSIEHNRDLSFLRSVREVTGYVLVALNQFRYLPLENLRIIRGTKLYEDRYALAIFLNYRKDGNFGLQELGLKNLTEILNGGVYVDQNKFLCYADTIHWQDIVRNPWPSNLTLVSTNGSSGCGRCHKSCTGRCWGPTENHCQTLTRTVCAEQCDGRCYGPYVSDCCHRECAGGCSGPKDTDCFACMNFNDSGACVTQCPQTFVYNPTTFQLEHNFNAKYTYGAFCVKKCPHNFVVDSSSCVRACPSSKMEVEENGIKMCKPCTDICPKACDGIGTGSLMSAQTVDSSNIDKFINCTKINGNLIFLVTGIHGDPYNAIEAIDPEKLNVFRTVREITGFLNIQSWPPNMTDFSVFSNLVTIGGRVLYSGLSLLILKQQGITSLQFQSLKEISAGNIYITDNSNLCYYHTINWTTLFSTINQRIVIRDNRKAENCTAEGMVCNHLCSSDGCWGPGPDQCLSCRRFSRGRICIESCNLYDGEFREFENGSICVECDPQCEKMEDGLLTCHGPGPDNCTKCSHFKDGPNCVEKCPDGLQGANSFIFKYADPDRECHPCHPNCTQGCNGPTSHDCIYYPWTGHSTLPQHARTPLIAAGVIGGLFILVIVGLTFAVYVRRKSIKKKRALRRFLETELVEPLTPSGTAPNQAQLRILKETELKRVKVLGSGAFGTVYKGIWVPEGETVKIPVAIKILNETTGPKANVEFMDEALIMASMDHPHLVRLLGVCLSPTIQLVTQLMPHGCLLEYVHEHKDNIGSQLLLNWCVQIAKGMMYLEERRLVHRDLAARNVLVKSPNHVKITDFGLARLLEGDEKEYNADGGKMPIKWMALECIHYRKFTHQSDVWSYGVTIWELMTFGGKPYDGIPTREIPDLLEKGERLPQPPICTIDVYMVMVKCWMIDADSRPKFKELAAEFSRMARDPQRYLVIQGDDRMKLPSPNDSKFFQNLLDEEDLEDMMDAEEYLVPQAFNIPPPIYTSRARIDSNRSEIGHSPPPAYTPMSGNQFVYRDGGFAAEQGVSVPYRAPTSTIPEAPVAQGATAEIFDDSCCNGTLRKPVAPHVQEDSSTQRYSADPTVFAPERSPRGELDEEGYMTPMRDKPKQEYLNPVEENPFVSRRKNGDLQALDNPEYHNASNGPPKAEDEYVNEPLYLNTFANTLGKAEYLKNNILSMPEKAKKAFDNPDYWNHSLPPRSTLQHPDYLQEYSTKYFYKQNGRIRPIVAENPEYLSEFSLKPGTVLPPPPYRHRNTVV

[7] = biological target: Glycogen synthase kinase-3 alpha (Homo sapiens) (UniProt P49840); assay: Inhibition of GSK3alpha (unknown origin) at 500 nM by Z-LYTE assay relative to control
Chain of Glycogen synthase kinase-3 alpha (Homo sapiens) (P49840 2-483 limits assumed): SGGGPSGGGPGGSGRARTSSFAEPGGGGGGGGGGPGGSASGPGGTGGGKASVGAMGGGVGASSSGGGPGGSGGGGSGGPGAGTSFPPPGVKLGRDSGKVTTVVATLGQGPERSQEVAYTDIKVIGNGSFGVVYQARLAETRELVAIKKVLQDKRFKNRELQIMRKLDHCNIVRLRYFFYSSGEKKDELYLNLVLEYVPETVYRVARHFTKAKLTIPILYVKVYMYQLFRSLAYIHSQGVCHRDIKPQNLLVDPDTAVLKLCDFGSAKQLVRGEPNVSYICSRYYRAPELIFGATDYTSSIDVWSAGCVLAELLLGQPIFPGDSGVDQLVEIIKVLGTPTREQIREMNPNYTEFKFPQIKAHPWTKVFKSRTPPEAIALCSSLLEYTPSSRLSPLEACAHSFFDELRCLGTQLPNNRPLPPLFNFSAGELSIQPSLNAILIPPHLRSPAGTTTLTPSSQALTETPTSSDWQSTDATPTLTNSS

[8] = biological target: T1, Inhibitor of nuclear factor kappa-B kinase subunit beta (Homo sapiens) (UniProt O14920); assay: Inhibition of recombinant full-length human GST-tagged IKKbeta expressed in baculovirus expression system at 500 nM by Z-LYTE assay relative to control
T1 sequence (whole entry): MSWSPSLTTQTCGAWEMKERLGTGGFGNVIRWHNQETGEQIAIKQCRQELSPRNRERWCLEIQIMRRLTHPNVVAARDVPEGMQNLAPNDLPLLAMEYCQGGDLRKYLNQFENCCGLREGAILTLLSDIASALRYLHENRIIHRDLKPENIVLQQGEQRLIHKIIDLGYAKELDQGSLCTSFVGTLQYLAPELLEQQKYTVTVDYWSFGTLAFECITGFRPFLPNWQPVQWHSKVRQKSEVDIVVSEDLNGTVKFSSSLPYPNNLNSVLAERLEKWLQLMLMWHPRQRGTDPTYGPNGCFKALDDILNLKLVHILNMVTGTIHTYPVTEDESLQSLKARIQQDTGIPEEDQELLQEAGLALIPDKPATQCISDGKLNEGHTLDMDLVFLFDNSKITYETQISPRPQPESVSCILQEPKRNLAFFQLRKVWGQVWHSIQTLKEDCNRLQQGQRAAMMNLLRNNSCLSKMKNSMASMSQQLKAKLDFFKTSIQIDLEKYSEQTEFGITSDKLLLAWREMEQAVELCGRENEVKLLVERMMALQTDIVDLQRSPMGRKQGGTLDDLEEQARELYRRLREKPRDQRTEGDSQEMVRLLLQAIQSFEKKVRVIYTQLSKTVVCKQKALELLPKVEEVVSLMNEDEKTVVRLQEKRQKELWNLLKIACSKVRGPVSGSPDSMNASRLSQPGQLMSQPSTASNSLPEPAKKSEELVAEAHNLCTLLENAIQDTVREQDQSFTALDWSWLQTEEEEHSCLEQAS

[9] = biological target: Tyrosine-protein kinase JAK1 (Homo sapiens) (UniProt P23458); assay: Inhibition of recombinant human GST-tagged JAK1 cytoplasmic domain expressed in baculovirus expression system at 500 nM by Z-LYTE assay relative to control
[10] = biological target: Vascular endothelial growth factor receptor 2 (Homo sapiens) (UniProt P35968); assay: Inhibition of recombinant human His-tagged KDR cytoplasmic domain (789 to 1356 residues) expressed in baculovirus expression system at 500 nM by Z-LYTE assay relative to control
Chain of Vascular endothelial growth factor receptor 2 (Homo sapiens) (P35968 whole entry, the tested form may be a part): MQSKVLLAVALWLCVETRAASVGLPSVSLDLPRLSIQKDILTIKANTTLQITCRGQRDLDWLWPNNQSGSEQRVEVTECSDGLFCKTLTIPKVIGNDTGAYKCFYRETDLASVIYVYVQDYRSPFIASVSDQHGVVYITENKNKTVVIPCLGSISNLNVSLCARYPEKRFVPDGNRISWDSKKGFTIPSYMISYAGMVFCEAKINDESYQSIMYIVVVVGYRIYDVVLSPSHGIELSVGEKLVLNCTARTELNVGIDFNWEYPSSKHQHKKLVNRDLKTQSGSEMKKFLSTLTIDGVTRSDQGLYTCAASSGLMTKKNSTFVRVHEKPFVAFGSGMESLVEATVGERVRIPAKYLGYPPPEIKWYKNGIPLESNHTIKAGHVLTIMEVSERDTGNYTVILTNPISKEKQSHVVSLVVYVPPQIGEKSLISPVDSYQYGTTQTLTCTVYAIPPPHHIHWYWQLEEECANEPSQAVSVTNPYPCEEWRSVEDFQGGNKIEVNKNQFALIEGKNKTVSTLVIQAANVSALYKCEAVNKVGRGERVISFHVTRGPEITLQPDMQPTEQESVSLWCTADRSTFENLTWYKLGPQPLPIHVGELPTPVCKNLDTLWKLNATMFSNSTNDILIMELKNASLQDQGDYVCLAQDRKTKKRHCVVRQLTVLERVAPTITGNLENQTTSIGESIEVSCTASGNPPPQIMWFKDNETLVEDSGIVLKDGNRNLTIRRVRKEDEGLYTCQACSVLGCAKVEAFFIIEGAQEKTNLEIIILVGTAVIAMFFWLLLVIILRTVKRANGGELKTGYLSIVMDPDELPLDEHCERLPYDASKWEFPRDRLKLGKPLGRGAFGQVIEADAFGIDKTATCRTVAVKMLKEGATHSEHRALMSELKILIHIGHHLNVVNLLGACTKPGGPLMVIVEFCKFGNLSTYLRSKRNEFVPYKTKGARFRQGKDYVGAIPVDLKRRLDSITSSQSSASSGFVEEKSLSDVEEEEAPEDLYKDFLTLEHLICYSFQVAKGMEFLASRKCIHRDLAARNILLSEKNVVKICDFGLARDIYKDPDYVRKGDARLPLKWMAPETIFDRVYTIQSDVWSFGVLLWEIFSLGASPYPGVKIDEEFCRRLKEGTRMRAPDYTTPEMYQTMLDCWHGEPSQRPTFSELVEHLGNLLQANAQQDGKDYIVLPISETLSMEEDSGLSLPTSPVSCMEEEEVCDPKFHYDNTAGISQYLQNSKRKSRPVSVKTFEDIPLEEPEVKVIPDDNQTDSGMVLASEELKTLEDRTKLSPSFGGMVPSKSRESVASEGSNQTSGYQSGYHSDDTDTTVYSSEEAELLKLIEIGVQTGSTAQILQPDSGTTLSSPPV

[11] = biological target: Mast/stem cell growth factor receptor Kit (Homo sapiens) (UniProt P10721); assay: Inhibition of recombinant human His-tagged KIT cytoplasmic domain (544 to 976 residues) expressed in baculovirus expression system at 500 nM by Z-LYTE assay relative to control
[12] = biological target: Tyrosine-protein kinase Lyn (Homo sapiens) (UniProt P07948); assay: Inhibition of recombinant human full-length N-terminal GST-tagged LYN-A expressed in insect cells at 500 nM by Z-LYTE assay relative to control
Chain of Tyrosine-protein kinase Lyn (Homo sapiens) (P07948 2-512 limits assumed): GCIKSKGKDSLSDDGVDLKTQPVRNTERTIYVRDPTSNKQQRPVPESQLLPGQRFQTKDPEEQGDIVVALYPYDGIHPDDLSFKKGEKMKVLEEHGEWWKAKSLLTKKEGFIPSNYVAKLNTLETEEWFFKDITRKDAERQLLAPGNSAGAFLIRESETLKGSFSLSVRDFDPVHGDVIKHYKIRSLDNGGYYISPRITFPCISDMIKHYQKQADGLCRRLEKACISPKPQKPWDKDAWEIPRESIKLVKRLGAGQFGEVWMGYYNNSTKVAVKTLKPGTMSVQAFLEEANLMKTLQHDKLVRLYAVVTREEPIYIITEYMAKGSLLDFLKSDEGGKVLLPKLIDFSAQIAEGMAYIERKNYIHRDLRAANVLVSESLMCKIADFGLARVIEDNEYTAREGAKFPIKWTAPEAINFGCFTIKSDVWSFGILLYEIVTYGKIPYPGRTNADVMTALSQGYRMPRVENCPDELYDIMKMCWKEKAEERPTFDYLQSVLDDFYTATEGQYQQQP

[13] = biological target: Dual specificity mitogen-activated protein kinase kinase 1 (Homo sapiens) (UniProt Q02750); assay: Inhibition of recombinant human full length His-tagged MEK1 expressed in baculovirus expression system at 500 nM by Z-LYTE assay relative to control
[14] = biological target: Mitogen-activated protein kinase 1 (Homo sapiens) (UniProt P28482); assay: Inhibition of recombinant human full length GST-tagged ERK2 expressed in Escherichia coli at 500 nM by Z-LYTE assay relative to control
[15] = biological target: Mitogen-activated protein kinase 3 (Homo sapiens) (UniProt P27361); assay: Inhibition of recombinant human full length GST-tagged ERK1 expressed in Escherichia coli at 500 nM by Z-LYTE assay relative to control
Chain of Mitogen-activated protein kinase 3 (Homo sapiens) (P27361 whole entry): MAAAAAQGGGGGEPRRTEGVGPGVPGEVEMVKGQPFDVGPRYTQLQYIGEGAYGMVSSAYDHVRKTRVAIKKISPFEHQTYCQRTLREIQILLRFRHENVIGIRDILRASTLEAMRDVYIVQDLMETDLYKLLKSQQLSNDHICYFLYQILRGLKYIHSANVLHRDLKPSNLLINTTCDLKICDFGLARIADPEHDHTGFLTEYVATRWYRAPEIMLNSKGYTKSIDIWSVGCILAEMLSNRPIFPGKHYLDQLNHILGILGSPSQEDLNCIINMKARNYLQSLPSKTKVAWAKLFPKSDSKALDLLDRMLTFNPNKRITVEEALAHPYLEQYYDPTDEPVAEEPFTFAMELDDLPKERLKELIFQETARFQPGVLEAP

[16] = biological target: Mitogen-activated protein kinase 8 (Homo sapiens) (UniProt P45983); assay: Inhibition of recombinant human full length His-tagged JNK1 expressed in baculovirus expression system at 500 nM by Z-LYTE assay relative to control
[17] = biological target: Hepatocyte growth factor receptor (Homo sapiens) (UniProt P08581); assay: Inhibition of recombinant truncated human His-tagged MET expressed in mammalian expression system at 500 nM by Z-LYTE assay relative to control
[18] = biological target: PI3-kinase p110-delta/p85-alpha (Homo sapiens) (UniProt P27986+O00329); assay: Inhibition of PI3K p110delta/p85alpha (unknown origin) at 500 nM by Z-LYTE assay relative to control; type: protein-complex assay
[19] = biological target: Serine/threonine-protein kinase pim-3 (Homo sapiens) (UniProt Q86V86); assay: Inhibition of recombinant full length human GST-tagged PIM3 expressed in insect cells at 500 nM by Z-LYTE assay relative to control
[20] = biological target: Protein kinase C theta type (Homo sapiens) (UniProt Q04759); assay: Inhibition of recombinant full length human His-tagged PKCtheta expressed in baculovirus expression system at 500 nM by Z-LYTE assay relative to control
[21] = biological target: Rho-associated protein kinase 1 (Homo sapiens) (UniProt Q13464); assay: Inhibition of recombinant human GST-tagged ROCK1 cytoplasmic domain expressed in baculovirus expression system at 500 nM by Z-LYTE assay relative to control
[22] = biological target: Tyrosine-protein kinase Yes (Homo sapiens) (UniProt P07947); assay: Inhibition of human full length GST-tagged YES1 expressed in baculovirus expression system at 500 nM by Z-LYTE assay relative to control
Chain of Tyrosine-protein kinase Yes (Homo sapiens) (P07947 2-543 limits assumed): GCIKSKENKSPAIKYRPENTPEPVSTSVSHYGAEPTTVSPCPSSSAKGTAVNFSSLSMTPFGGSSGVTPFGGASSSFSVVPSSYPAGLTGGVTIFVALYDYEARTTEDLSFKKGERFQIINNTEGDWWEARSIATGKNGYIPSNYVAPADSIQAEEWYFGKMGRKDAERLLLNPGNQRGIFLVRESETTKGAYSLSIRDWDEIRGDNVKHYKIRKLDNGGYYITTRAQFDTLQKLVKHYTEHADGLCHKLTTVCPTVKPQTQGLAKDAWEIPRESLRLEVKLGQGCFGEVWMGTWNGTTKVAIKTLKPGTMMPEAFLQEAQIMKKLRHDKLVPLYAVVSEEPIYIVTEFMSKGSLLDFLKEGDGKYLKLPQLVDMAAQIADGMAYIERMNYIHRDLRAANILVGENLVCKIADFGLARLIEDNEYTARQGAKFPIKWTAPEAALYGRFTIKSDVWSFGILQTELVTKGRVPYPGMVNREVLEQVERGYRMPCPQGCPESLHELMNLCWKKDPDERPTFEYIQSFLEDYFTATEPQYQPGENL

[23] = biological target: Luciferin 4-monooxygenase (Photinus pyralis, UniProt P08659); assay: Inhibition of firefly luciferase activity expressed in HEK293 cells after 18 hrs by luminescence assay; type: cell-based

Row | inhibition [3] | inhibition [4] | inhibition [5] | inhibition [6] | inhibition [7] | inhibition [8] | inhibition [9] | inhibition [10] | inhibition [11] | inhibition [12] | inhibition [13] | inhibition [14] | inhibition [15] | inhibition [16] | inhibition [17] | inhibition [19] | inhibition [20] | inhibition [21] | Structure (SMILES) | IC50 (PBMC [1]) | IC50 (PBMC [2]) | other results
1 | -4% | 9% | 0% | 71% | 4% | 11% | -1% | 38% | -1% | 74% | 10% | 9% | 3% | -3% | 14% | 3% | -2% | -1% | OCc1ccc(-c2cc3c(N[C@H](CO)c4ccccc4)ncnc3[nH]2)cc1 | 1400 nM | > 10000 nM | inhibition [18]: 2%; inhibition [22]: 81%
2 | -4% | 3% | 1% | 12% | 14% | 14% | 3% | 7% | -3% | 14% | 15% | 6% | 0% | 4% | 6% | -1% | 6% | 3% | CCC(=O)Nc1ccc(-c2c[nH]c3ncnc(N[C@H](C)c4ccccc4)c23)cc1 | 2100 nM | > 10000 nM | IC50 [23]: 9100 nM; inhibition [18]: 13%; inhibition [22]: 9%
3 | 0% | 62% | 1% | 3% | 3% | 7% | 3% | 17% | -2% | 28% | 6% | 6% | 0% | 3% | 4% | -7% | 8% | 17% | CN(C)CCn1cc(-c2cccc(O)c2)c2c(N)ncnc21 | 1200 nM | > 10000 nM | IC50 [23]: > 10000 nM; inhibition [22]: 65%
4 | -1% | 5% | 1% | 20% | 9% | 12% | -2% | 20% | 15% | 21% | 21% | 7% | 6% | 19% | 1% | 7% | -7% | 4% | OC[C@@H](Nc1ncnc2sc(-c3ccc(O)cc3)cc12)c1ccccc1 | 2800 nM | > 30000 nM | inhibition [18]: 0%; inhibition [22]: 13%
